In ChEMBL document CHEMBL3526086, “Identification of the oxidative and conjugative enzymes involved in the biotransformation of brivanib” (Drug Metab Dispos, 2012):

Target: T1, Cytochrome P450 2A6 (Homo sapiens, UniProt P11509)
T1 sequence (P11509 whole entry): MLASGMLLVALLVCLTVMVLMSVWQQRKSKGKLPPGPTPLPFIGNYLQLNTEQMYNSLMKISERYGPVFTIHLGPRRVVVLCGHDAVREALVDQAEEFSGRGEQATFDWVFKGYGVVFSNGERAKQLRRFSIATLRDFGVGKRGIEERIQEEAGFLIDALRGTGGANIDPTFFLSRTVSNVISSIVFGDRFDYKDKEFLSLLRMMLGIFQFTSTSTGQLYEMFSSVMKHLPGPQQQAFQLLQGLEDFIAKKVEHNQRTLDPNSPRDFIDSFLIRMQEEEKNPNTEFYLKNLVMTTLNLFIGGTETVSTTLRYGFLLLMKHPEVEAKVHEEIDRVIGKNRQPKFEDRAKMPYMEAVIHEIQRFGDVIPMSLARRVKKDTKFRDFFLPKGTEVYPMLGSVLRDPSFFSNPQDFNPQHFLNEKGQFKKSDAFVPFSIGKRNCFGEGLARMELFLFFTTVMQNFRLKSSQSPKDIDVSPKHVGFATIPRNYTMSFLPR
Experiment: Drug metabolism in human liver microsomes assessed as monoclonal antibody-mediated inhibition of CYP2A6-mediated (R)-1-(4-(4-fluoro-2-(hydroxymethyl)-1H-indol-5-yloxy)-5-methylpyrrolo[1,2-f][1,2,4]triazin-6-yloxy)propan-2-ol formation at 2 and 20 uM for 30 mins by LC/MS analysis
Format: ADME
Conditions: 0.5 h

Drug metabolism: metabolite_detected
SMILES: Cc1cc2c(F)c(Oc3ncnn4cc(OC[C@@H](C)O)c(C)c34)ccc2[nH]1 [BRIVANIB]
